Read-outs that look alike come from different tables or passages of the source.
Key:
[1] = system: Differentiated U937 cells; test: MTT assay (cell viability); type: cell-based, human
Description: MTT Assay Differentiated U937 cells were pre-incubated with compound for 4 hrs in 5% FCS or 10% FCS for 24 hrs. […] After 1 hr incubation, the media were removed, 200 ul of DMSO added to each well and the plates were shaken lightly for 1 h prior to reading the absorbance at 550 nm. The percentage loss of cell viability was calculated for each well relative to vehicle (0.5% DMSO)-treatment. Consequently an apparent increase in cell viability for drug treatment relative to vehicle is tabulated as a negative percentage.

[2] = system: U937 cells; test: LPS-induced IL-8 release in U937 cells; type: cell-based; settings: Homo sapiens, read-out: DU937 (LPS) IL-8 IC50
Description: (§1) LPS-Induced TNF Alpha/IL-8 Release in U937 Cells: Potency U937 cells, human monocytic cell line, were differentiated to macrophage-type cells by incubation with phorbol myristate acetate (PMA; 100 ng/ml) for 48 to 72 hours. Cells were pre-incubated with final concentrations of compound for 2 hrs. […] Coli: O111:B4, Sigma) for 4 hrs, and the supernatant collected for determination of TNFα and IL-8 concentration by sandwich ELISA (Duo-set, R&D systems). […] The inhibition of IL-8 production was calculated at each concentration of test compound by comparison with vehicle control.

[3] = system: THP-1 cells; test: LPS-induced TNF alpha release in THP-1 cells; type: cell-based; settings: Homo sapiens
Description: LPS-Induced TNF Alpha Release in THP-1 Cells: Potency […] Coli; O111:B4, Sigma) for 4 hr and the supernatant collected for determination of TNFα concentration by sandwich ELISA (Duo-set, R&D systems). The inhibition of TNFα production was calculated at each concentration by comparison with vehicle control.

[4] = biological target: T1, p38 MAPK alpha (MAPK14) (Homo sapiens, UniProt Q16539); test: Enzyme inhibition assay, p38 MAPK alpha (FRET, Z-LYTE, via MAPKAP-K2); type: biochemical; settings: read-out: Enzyme p38α IC50
T1 construct: purchased Invitrogen
T1 sequence (Q16539 whole entry): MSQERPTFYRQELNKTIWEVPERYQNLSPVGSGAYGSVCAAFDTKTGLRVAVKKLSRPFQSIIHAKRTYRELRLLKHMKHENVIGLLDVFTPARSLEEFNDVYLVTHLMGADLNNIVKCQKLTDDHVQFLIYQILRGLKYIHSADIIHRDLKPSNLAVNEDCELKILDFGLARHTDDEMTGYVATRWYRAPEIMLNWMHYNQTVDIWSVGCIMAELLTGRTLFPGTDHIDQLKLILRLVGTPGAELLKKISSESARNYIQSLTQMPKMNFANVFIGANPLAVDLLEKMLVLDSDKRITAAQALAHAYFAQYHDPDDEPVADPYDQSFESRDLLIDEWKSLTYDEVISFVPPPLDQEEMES

[5] = system: BEAS2B cells; test: Poly I:C-induced ICAM-1 induction in BEAS2B cells; type: cell-based; settings: Homo sapiens, BEAS-2B, read-out: BEAS2B (polyIC) ICAM1 IC50
Description: Poly I:C-Induced ICAM-1 Induction in BEAS2B Cells: Potency Poly I:C (1 ug/ml) (Invivogen Ltd., San Diego, Calif.) was transfected into BEAS2B cells (human bronchial epithelial cells, ATCC) with Oligofectamine (Invitrogen, Carlsbad, Calif.). Cells were pre-incubated with final concentrations of compound for 2 hrs. The level of ICAM1 expression on the cell surface was determined by cell-based ELISA. Briefly, at 18 hrs after poly I:C transfection, cells were fixed with 4% formaldehyde in PBS. After quenching endogenous peroxidase by adding 0.1% sodium azide and 1% hydrogen peroxide, cells were washed with wash-buffer (0.1% Tween in PBS: PBS-Tween). After blocking the wells with 5% milk in PBS-Tween for 1 hr, the cells were incubated with anti-human ICAM-1 antibody (Cell Signaling Technology, Danvers, Mass.) in 1% BSA PBS overnight at 4° C. Cells were washed with PBS-Tween and incubated with the secondary antibody (HRP-conjugated anti-rabbit IgG, Dako Ltd., Glostrup, Denmark). The ICAM-1 signal was detected by adding substrate and reading at 450 nm with a reference wavelength of 655 nm using a spectrophotometer. […] The measured OD 450-655 readings were corrected for cell number by dividing with the OD595 reading in each well.

[6] = system: U937 cells; test: LPS-induced TNF alpha release in U937 cells; type: cell-based
Description: as §1

[7] = Table 2, loss of cell viability at 1 μg/ml
[8] = Homo sapiens; read-out: DU937 (LPS) TNFα REC50
[9] = Table 3, first MTT column, loss of cell viability, test conducted at 10 μg/ml
[10] = Table 3, second MTT column, loss of cell viability, test conducted at 10 μg/ml
[11] = THP-1, Table 3, read-out: THP-1 (LPS) TNFα IC50
[12] = Table 3, first MTT column, loss of cell viability at 1 μg/ml
[13] = Table 3, second MTT column, loss of cell viability at 1 μg/ml
[14] = THP-1, read-out: THP-1 (LPS) TNFα IC50
[15] = Homo sapiens, read-out: DU937 (LPS) TNFα REC50

SMILES	DU937 (cell viability) MTT assay 4 h [1, 7]	DU937 (cell viability) MTT assay 24 h [1, 7]	IC50 ([2]; Table 2)	IC50 ([3]; THP-1, Table 2, read-out: THP-1 (LPS) TNFα IC50)	IC50 ([4]; Table 2)	IC50 ([5]; Table 2)	EC50 [6, 8]	DU937 (cell viability) MTT assay 4 h [1, 9]	DU937 (cell viability) MTT assay 4 h [1, 10]	IC50 ([2]; Table 3)	IC50 [3, 11]	IC50 ([4]; Table 3)	IC50 ([5]; Table 3)	DU937 (cell viability) MTT assay 4 h [1, 12]	DU937 (cell viability) MTT assay 4 h [1, 13]	IC50 [2]	IC50 [3, 14]	IC50 [5]	EC50 [6, 15]
COCC(=O)Nc1cc(Oc2ccc(NC(=O)Nc3cc(C(C)(C)C)nn3-c3ccc(C)cc3)c(C)c2C)ccn1 [Example 26, N-(4-(4-(3-(3-tert-Butyl-1-p-tolyl-1H-pyrazol-5-yl)ureido)-2,3-dimethylphenoxy)pyridin-2-yl)-2-methoxyacetamide]	− (<=30%)	+ (>30%)	< 10 nM	< 10 nM	< 5000 nM	< 10 nM	< 10 nM	–	–	–	–	–	–	–	–	–	–	–	–
CCNC(=O)Nc1cc(Oc2ccc(NC(=O)Nc3cc(C(C)(C)C)nn3-c3ccc(C)cc3)c3ccccc23)ccn1 [Example 28, N-Ethyl-N′-4-(4-(3-(3-tert-butyl-1-p-tolyl-1H-pyrazol-5-yl)ureido)naphthalen-1-yloxy)pyridin-2-ylurea]	–	–	–	–	–	–	< 5000 nM	−^$ (<=30%)	−^$ (<=30%)	< 5000 nM	< 10 nM	< 5000 nM	< 5000 nM	–	–	–	–	–	–
Cc1ccc(-n2nc(C(C)(C)C)cc2NC(=O)Nc2ccc(Oc3ccnc(NC(N)=O)c3)c3ccccc23)cc1 [Example 29, 4-(4-(3-(3-tert-Butyl-1-p-tolyl-1H-pyrazol-5-yl)ureido)naphthalen-1-yloxy)pyridin-2-yl urea]	–	–	–	–	–	–	< 10 nM	–	–	< 5000 nM	< 10 nM	< 10 nM	< 10 nM	− (<=30%)	− (<=30%)	–	–	–	–
COCCNC(=O)Nc1cc(Oc2ccc(NC(=O)Nc3cc(C(C)(C)C)nn3-c3ccc(C)cc3)c3ccccc23)ccn1 [Example 34, 1-(3-(tert-Butyl)-1-(p-tolyl)-1H-pyrazol-5-yl)-3-(4-((2-(3-(2-methoxyethyl)ureido)pyridin-4-yl)oxy)naphthalen-1-yl)urea]	–	–	–	–	–	–	< 5000 nM	−^ ^$ (<=30%)	+^$ (>30%)	< 5000 nM	< 10 nM	< 5000 nM	< 5000 nM	–	–	–	–	–	–
CNC(=O)Nc1cc(Oc2ccc(NC(=O)Nc3cc(C(C)(C)C)nn3-c3ccc(C)cc3)c3ccccc23)ccn1 [Example 36]	–	–	–	–	–	–	< 10 nM	–	–	< 5000 nM	< 10 nM	< 5000 nM	< 10 nM	− (<=30%)	− (<=30%)	–	–	–	–
CC(=O)N1CCC(NC(=O)Nc2cc(Oc3ccc(NC(=O)Nc4cc(C(C)(C)C)nn4-c4ccc(C)cc4)c4ccccc34)ccn2)CC1 [Example 39, N-Acetyl 4-(3-(4-(4-(3-(3-tert-butyl-1-p-tolyl-1H-pyrazol-5-yl)ureido)naphthalen-1-yloxy)pyridin-2-yl)ureido)piperidine]	–	–	–	–	–	–	< 10 nM	–	–	< 10 nM	< 10 nM	< 10 nM	< 5000 nM	− (<=30%)	+ (>30%)	–	–	–	–
Cc1ccc(-n2nc(C(C)(C)C)cc2NC(=O)Nc2ccc(Oc3ccnc(NC(=O)N4CCN(C)CC4)c3)c3ccccc23)cc1 [Example 43, N-(4-((4-(3-(3-(tert-Butyl)-1-(p-tolyl)-1H-pyrazol-5-yl)ureido)naphthalen-1-yl)oxy)pyridin-2-yl)-4-methylpiperazine-1-carboxamide]	–	–	–	–	–	–	< 10 nM	–	–	< 10 nM	< 10 nM	< 10 nM	< 10 nM	− (<=30%)	− (<=30%)	–	–	–	–
Cc1ccc(-n2nc(C(C)(C)C)cc2NC(=O)Nc2ccc(Oc3ccnc(NC(=O)N(C)C)c3)c3ccccc23)cc1 [Example 44, 3-(4-((4-(3-(3-(tert-Butyl)-1-(p-tolyl)-1H-pyrazol-5-yl)ureido)naphthalen-1-yl)oxy)pyridin-2-yl)-1,1-dimethylurea]	–	–	–	–	–	–	–	–	–	–	–	< 5000 nM	–	− (<=30%)	− (<=30%)	< 10 nM	< 10 nM	< 10 nM	< 10 nM
Cc1ccc(-n2nc(C(C)(C)C)cc2NC(=O)Nc2ccc(Oc3ccnc(NC(=O)N4CCCCC4)c3)c3ccccc23)cc1 [Example 45, N-(4-((4-(3-(3-(tert-Butyl)-1-(p-tolyl)-1H-pyrazol-5-yl)ureido)naphthalen-1-yl)oxy)pyridin-2-yl)piperidine-1-carboxamide]	–	–	–	–	–	–	< 10 nM	–	–	< 10 nM	< 10 nM	< 10 nM	< 10 nM	− (<=30%)	− (<=30%)	–	–	–	–
Cc1ccc(-n2nc(C(C)(C)C)cc2NC(=O)Nc2ccc(Oc3ccnc(NC(=O)N(C)CCN4CCOCC4)c3)c3ccccc23)cc1 [Example 46, N-Methyl-N-(2-(morpholin-4-yl)ethyl)-N′-4-(4-(3-(3-tert-butyl-1-p-tolyl-1H-pyrazol-5-yl)ureido)naphthalen-1-yloxy)pyridin-2-ylurea]	–	–	–	–	–	–	< 10 nM	–	–	< 10 nM	< 5000 nM	< 10 nM	< 5000 nM	− (<=30%)	− (<=30%)	–	–	–	–
Cc1ccc(-n2nc(C(C)(C)C)cc2NC(=O)Nc2ccc(Oc3ccnc(NC(=O)NCCCCN4CCOCC4)c3)c3ccccc23)cc1 [Example 47, N-(4-(Morpholin-4-yl)butyl)-N′-4-(4-(3-(3-tert-butyl-1-p-tolyl-1H-pyrazol-5-yl)ureido)naphthalen-1-yloxy)pyridin-2-ylurea]	–	–	–	–	–	–	< 10 nM	–	–	< 10 nM	< 10 nM	< 10 nM	< 10 nM	− (<=30%)	− (<=30%)	–	–	–	–
Cc1ccc(-n2nc(C(C)(C)C)cc2NC(=O)Nc2ccc(Oc3ccnc(NC(=O)NCc4cc(C)no4)c3)c3ccccc23)cc1 [Example 49, N-(3-Methylisoxazol-5-yl)methyl-N′-4-(4-(3-(3-tert-butyl-1-p-tolyl-1H-pyrazol-5-yl)ureido)naphthalen-1-yloxy)pyridin-2-ylurea]	–	–	–	–	–	–	< 10 nM	–	–	< 5000 nM	< 10 nM	< 10 nM	< 5000 nM	− (<=30%)	− (<=30%)	–	–	–	–
Cc1ccc(-n2nc(C(C)(C)C)cc2NC(=O)Nc2ccc(Oc3ccnc(NC(=O)NC4CCN(C)CC4)c3)c3ccccc23)cc1 [Example 50, N-(1-Methyl)piperidin-4-yl-N′-4-(4-(3-(3-tert-butyl-1-p-tolyl-1H-pyrazol-5-yl)ureido)naphthalen-1-yloxy)pyridin-2-ylurea]	–	–	–	–	–	–	–	–	–	–	–	< 10 nM	–	− (<=30%)	+ (>30%)	< 10 nM	< 10 nM	< 10 nM	< 10 nM

From patent US8299074B2, “P38 MAP kinase inhibitors” (RespiVert Ltd., priority 2008, dated 2012)
